From PMC6593233 (Frontiers in Pharmacology, 2019)
Entries after “also recorded” stand apart in the source; their conditions may differ. Where two headings read alike, the source gives them in different places. Each block holds one molecule with its values, some of them ahead of it.

How the values were obtained:
[1] = tested on: isolated guinea pig hearts; test: Isolated Langendorff-perfused guinea pig hearts: AERP, QTcB, heart rate
Protocol: AP14145 was supplied by Acesion Pharma. Dofetilide was purchased at Sigma-Aldrich (St. Louis, USA) for the Langendorff and Hello Bio (Bristol, UK) for the closed chest in vivo experiments. Ondansetron was purchased at Sigma-Aldrich (St. Louis, USA). For the Langendorff perfused heart experiments the compounds were dissolved in DMSO to make stock solutions and diluted to the final concentration in the Krebs-Henseleit buffer during the experiments. The final concentration of DMSO never exceeded 0.3% in the buffer. For the closed chest experiments, the compounds were first dissolved in PEG-400 and then diluted to a 50% saline and 50% PEG-400 solution. The Langendorff perfused heart experiments were performed using a total of 24 female Dunkin Hartley guinea pigs (350–450 g, Charles River, Saint-Germain-Nuelle, France). Guinea pigs were anesthetized with an i.p. injection of pentobarbital 200 mg/ml, lidocaine hydrochloride 20 mg/ml, (Glostrup Apotek, Denmark), dose 0.150 ml/100 g body weight. A tracheotomy was performed and the guinea pigs were ventilated with 60 strokes*5 ml/min using a rodent ventilator (7025 Rodent ventilator, Ugo Basile, Italy). The hearts were excised and cannulated in situ through a small puncture of the aorta and connected to the Langendorff retrograde perfusion setup (Hugo Sachs Elektronik, Harvard Apparatus GmbH, March, Germany). The hearts were retrogradely perfused at a constant perfusion pressure of 60 mmHg at 37°C, pH 7.4, Krebs-Henseleit buffer (in mM: […] The aortic perfusion pressure was determined with an ISOTEC transducer (Hugo Sachs Elektronik) and the coronary flow was measured with an ultrasonic flow meter (Transonic Systems Inc., USA). Both were connected to an amplifier (Hugo Sachs Elektronik). The electrical activity was measured using volume conducted ECGs and by placing epicardial monophasic action potential electrodes (MAPs) on the atria and ventricles. The hearts were immersed into a temperature-controlled bath containing pH 7.4 Krebs-Henseleit buffer. Perfusion pressure, coronary flow, ECG, and MAP analogue signals sampled at a frequency of 2k/s and converted by a 16/30 data acquisition system from PowerLab systems (ADInstruments, Oxford, UK) and monitored using LabChart 7 software (ADInstruments). A bipolar pacing electrode was placed on the right atrial appendage for epicardial pacing stimulation using square pulses of 2 ms durations at three times diastolic threshold at 300 beats per minute. During the entire experiment, the ECG was monitored and monophasic action potential electrodes were placed on each chamber of the heart. The hearts were then left to stabilize for 20 min at intrinsic heart rhythm. The right AERP was measured by 10 regular stimuli (S1) followed by a premature extra stimulus (S2) applied with 1-ms increments. The AERP was defined as the longest S1–S2 interval failing to elicit an action potential. […] After a period of stabilization, every Langendorff experiment consisted of four 20-min episodes ( Figure 1 ). […] During the entire experiment, the AERP was measured every 5 min and the ECG was continuously monitored.

[2] = tested on: guinea pigs; test: In vivo closed chest atrially paced guinea pig model: AERP, QTcB, heart rate
Protocol: AP14145 was supplied by Acesion Pharma. […] For the Langendorff perfused heart experiments the compounds were dissolved in DMSO to make stock solutions and diluted to the final concentration in the Krebs-Henseleit buffer during the experiments. The final concentration of DMSO never exceeded 0.3% in the buffer. For the closed chest experiments, the compounds were first dissolved in PEG-400 and then diluted to a 50% saline and 50% PEG-400 solution. A total of 18 female guinea pigs (Dunkin Hartley HsdPoc : GH, Charles River) weighing 350-450 g were anesthetized with 5% isoflurane/oxygen in a sedation box. The guinea pigs were placed under artificial ventilation through a cannula placed in the trachea and anesthesia was reduced to 2.5% isoflurane/oxygen throughout the experiment. The temperature of the guinea pigs was monitored with a rectal thermometer and kept stable during the experiment using a heating lamp. Needle ECG electrodes were placed in each limb for ECG recordings (ADInstruments, UK). An electrophysiological catheter with eight electrodes (EPR-802) (Millar Inc., US) was placed in the right atrium via the right jugular vein. The two electrodes proximal to the tip of the catheter ([[…] et al., 2006]; [[…] et al., 2012]) were used to pace the atrium and six electrodes ([Waldo et al., 1996]; [[…] et al., 2003]; [Roukoz and […] et al., 2009]; [Grunnet et al., 2012]; [Zimetbaum, 2012]) were used to measure the electrical activity in the atrium. The AERP was measured as in the Langendorff experiments. Between the AERP recordings, the heart remained unpaced. An intravenous catheter (inside diameter 0.5, outside diameter 0.8 mm, Natsume Seisakusho, Japan) was placed in the right jugular vein alongside the electrophysiology catheter for drug infusion. […] First a period of 20 min baseline recording was conducted with AERP measurements every 5 min ( Figure 1 ). […] The AERP was measured every 5 min during baseline and every 2 min during and after infusion.

[3] = molecular target: T1, hKCa2.2 (Homo sapiens, UniProt Q9H2S1); design: method as in Simó-Vicens et al., 2017b; conditions: hKCa2.2, manual patch clamp; ref Simó-Vicens et al., 2017b; cited from earlier work
[4] = molecular target: T2, hKCa2.3 (Homo sapiens, UniProt Q9UGI6); design: method as in Simó-Vicens et al., 2017b; conditions: hKCa2.3, manual patch clamp; ref Simó-Vicens et al., 2017b; cited from earlier work
[5] = molecular target: T2, hKCa2.3; conditions: hKCa2.3, automated patch clamp, cited from earlier work
[6] = molecular target: T3, hKv11.1 (Homo sapiens, UniProt Q12809); design: method as in Diness et al., 2017; conditions: hKv11.1, automated patch clamp; ref Diness et al., 2017; cited from earlier work
T3 construct: expressed in transfected cells

[7] = molecular target: T1, hKCa2.2; design: method as in Simó-Vicens et al., 2017a; conditions: hKCa2.2, automated patch clamp; ref Simó-Vicens et al., 2017a; cited from earlier work
[8] = molecular target: T1, hKCa2.2; test: Manual whole-cell patch clamp, IKCa in HEK293 cells transiently transfected with hKCa2.2; format: cell-based
Protocol: These stock solutions were stored at −20°C and aliquots were solubilized at the desired concentration on the day of the experiment.
(§1) The KCa2.2 manual patch-clamp experiments and KCa2.2/KCa2.3 QPatch experiments were conducted using symmetrical K^+ solutions. The extracellular solution contained (in mM) 0.1 CaCl2, 3 MgCl2, 154 KCl, 10 HEPES, and 10 glucose (pH = 7.4 and 285–295 mOsm). The intracellular solution contained (in mM) 8.106 CaCl2 (final free Ca^2+ concentration of 400 nM), 1.167 MgCl2, 10 EGTA, 108 KCl, 10 HEPES, 31.25/10 KOH/EGTA, and 15 KOH (pH = 7.2).
The cells were cultured in Dulbecco’s modified Eagle’s medium (DMEM1965, Thermo Fisher, USA) supplemented with 26.2 mM NaHCO3, 25 mM HEPES, 10 ml L^-1 Glutamax (Gibco, USA), 10% fetal bovine serum (Biowest, France), and 100 U ml^-1 of penicillin/streptomycin (Sigma, Germany); 1 to 2 days after the transfection, patch clamp experiments were conducted. […]
Manual patch clamp recordings were made using a HEKA EPC9 amplifier and the PatchMaster software (HEKA Elektronik, Germany) at room temperature using the whole cell configuration. Fluorescence was used to detect successfully transfected cells. […]
(§2) For IKCa and IKr, the mean of the last three data points was used for further analysis. […] Individual IC50 values were calculated for each experiment and then used to obtain the final mean ± S.E.M.

[9] = molecular target: T1, hKCa2.2; test: Automated patch clamp (QPatch), IKCa in HEK293 cells stably expressing hKCa2.2; format: cell-based; conditions: hKCa2.2, automated patch clamp, present study, n = 8
Protocol: as §1
(§3) Bicuculline methiodide was used as a positive control for KCa2 specific current at the beginning and the end of the experiment.
(§4) The cells were cultured in Dulbecco’s modified Eagle’s medium (DMEM1965, Thermo Fisher, USA) supplemented with 26.2 mM NaHCO3, 25 mM HEPES, 10 ml L^-1 Glutamax (Gibco, USA), 10% fetal bovine serum (Biowest, France), 100 U ml^-1 of penicillin/streptomycin (Sigma, Germany), and 100 µg/ml Geneticin (Gibco, UK) […]
as §2

[10] = molecular target: T2, hKCa2.3; test: Automated patch clamp (QPatch), IKCa in HEK293 cells stably expressing hKCa2.3; format: cell-based
Protocol: as §1, §3, §4, §2

[11] = molecular target: T3, hKv11.1; test: Automated patch clamp (QPatch), IKr in CHO-K1 cells stably expressing Kv11.1; format: cell-based; conditions: Kv11.1 current
Protocol: For the Kv11.1 experiments conducted on the automated QPatch machine, the extracellular solution contained (in mM) 145 NaCl, 4 KCl, 2 CaCl2, 1 MgCl2, 10 HEPES, and 10 glucose (pH = 7.4 and 305 mOsm adjusted with sucrose). The intracellular solution contained (in mM) 120 KCl, 31.25/10 KOH/EGTA, 5.4 CaCl2, 1.75 MgCl2, 4 mM Na2ATP, and 10 HEPES (pH = 7.2 and 285–296 mOsm adjusted with sucrose). Recordings were made before and after application of drug.
The cells were cultured in DMEM F12 (Sigma, Germany), 10% fetal bovine serum (Biowest, France) and 100 U ml^-1 of penicillin/streptomycin (Sigma, Germany), 100 µg/ml Geneticin (Gibco, UK), 100 µg/ml hygromycin (Sigma-Aldrich), and 2 mM glutamine (Gibco, UK).
On the day of experiment, when cells reached about 70–90% confluency, they were detached with Detachin (Genlantis, USA) and resuspended in serum free medium (C5467 SAFC, Switzerland) containing 25 mM HEPES, 0.04 mg/ml soy bean trypsin inhibitor (T6522 Sigma-Aldrich), and 100 U/ml penicillin/streptomycin and were kept in suspension for QPatch experiments.
Automated patch-clamp whole-cell recordings were performed using a QPatch 16 HT system and disposable single-hole QPlates (Sophion, Denmark). […]

T3 sequence (Q12809 whole entry): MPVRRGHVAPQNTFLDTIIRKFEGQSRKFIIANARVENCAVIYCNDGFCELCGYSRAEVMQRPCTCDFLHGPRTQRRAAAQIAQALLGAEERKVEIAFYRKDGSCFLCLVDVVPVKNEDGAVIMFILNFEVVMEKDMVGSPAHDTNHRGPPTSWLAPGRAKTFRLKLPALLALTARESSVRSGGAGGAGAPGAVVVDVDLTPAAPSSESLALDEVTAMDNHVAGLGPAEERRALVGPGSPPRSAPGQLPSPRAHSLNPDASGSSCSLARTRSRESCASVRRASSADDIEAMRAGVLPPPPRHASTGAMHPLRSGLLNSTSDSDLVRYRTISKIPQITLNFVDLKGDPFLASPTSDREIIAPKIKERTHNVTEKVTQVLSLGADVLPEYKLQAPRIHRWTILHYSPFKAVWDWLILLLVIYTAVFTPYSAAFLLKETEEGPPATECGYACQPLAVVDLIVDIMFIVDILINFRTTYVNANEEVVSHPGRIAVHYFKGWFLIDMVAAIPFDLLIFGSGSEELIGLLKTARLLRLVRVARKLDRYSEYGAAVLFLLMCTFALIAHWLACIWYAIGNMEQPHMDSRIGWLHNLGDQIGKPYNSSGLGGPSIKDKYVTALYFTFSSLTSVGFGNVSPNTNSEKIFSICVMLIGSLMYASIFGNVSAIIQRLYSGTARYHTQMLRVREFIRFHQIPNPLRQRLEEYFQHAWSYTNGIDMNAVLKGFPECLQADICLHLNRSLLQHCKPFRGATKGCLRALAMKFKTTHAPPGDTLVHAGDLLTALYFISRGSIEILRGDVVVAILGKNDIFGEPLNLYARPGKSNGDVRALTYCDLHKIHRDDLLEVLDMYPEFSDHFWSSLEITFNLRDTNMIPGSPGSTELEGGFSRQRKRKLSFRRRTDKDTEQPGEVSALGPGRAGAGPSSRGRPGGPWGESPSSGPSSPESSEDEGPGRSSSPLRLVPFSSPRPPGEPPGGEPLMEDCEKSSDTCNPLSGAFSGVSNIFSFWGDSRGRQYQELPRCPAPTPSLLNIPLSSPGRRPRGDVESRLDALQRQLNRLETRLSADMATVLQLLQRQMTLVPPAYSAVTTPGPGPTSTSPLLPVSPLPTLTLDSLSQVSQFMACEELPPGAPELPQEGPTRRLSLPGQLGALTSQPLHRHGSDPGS

SMILES: CC(=O)Nc1cccc2[nH]c(N[C@H](C)c3cccc(C(F)(F)F)c3)nc12 [AP14145]
AERP ([1]; 10 µM, end of wash-in, TMC 61 ± 5 ms): 77 ± 2 ms
AERP (maximum) ([1]; 30 µM, TMC 64 ± 6 ms): 93 ± 2 ms
AERP (maximum during infusion) ([2]; 13.3 mg/kg infused over 20 min, TMC 75 ± 3 ms): 113 ± 6 ms
AERP ([2]; after 6 min of i.v. infusion (4 mg/kg given), TMC 72 ± 2 ms): 97 ± 6 ms
IC50 [3]: 1.1 µM
IC50 [4]: 1.1 µM
IC50 ([5]; ref Diness et al., 2017): 1.3 µM
IC50 [6]: 71.8 µM

SMILES: CN(CCOc1ccc(NS(C)(=O)=O)cc1)CCc1ccc(NS(C)(=O)=O)cc1 [Dofetilide]
HR, % of baseline values ([1]; 10 nM, TMC 94 ± 4%): 83 ± 3%
QTcB ([1]; 10 nM, TMC 271 ± 5 ms): 306 ± 9 ms
AERP ([1]; 30 nM, TMC 64 ± 6 ms): 80 ± 4 ms
HR, % of baseline values ([1]; 30 nM, TMC 91 ± 4%): 80 ± 3%
QTcB ([1]; 30 nM, TMC 269 ± 6 ms): 313 ± 9 ms
Effect on AERP ([2]; 0.01 mg/kg infused over 20 min): No effect on AERP
HR, % of the baseline average ([2]; 0.01 mg/kg, minimum, 5 min after end of infusion, TMC 93 ± 2%): 82 ± 3%
QTcB ([2]; after 5 min of infusion, 0.01 mg/kg over 20 min, TMC 280 ± 9 ms): 319 ± 11 ms
IC50 [7]: 60 µM
IC50 ([5]; ref Simó-Vicens et al., 2017a): 90 µM

IC50 ([8]; hKCa2.2, manual patch clamp, present study): > 1 µM
IC50 [9]: > 30 µM
IC50 ([10]; hKCa2.3, automated patch clamp, present study, n = 8): > 30 µM
Effect on IKCa ([10]; up to 30 µM, hKCa2.3 current): did not inhibit IKCa
SMILES: Cc1nccn1CC1CCc2c(c3ccccc3n2C)C1=O (stereo not drawn) [Ondansetron]
Effect on IKCa ([8]; 1 µM, hKCa2.2-expressing HEK cells, 400 nM intracellular calcium, n = 5): failed to inhibit IKCa; also recorded: did not inhibit IKCa
Concentration from which IKr is blocked [11]: ≥ 3000 nM
QTcB ([1]; 3 µM, TMC 269 ± 6 ms): 294 ± 5 ms
Effect on AERP compared to TMC ([1]; concentrations up to 3µM): did not affect AERP significantly
Effect on HR compared to TMC ([1]; concentrations up to 3µM): did not significantly affect HR
